Experimental data as given in patent publication US20230130066A1, “USE OF CYCLODEXTRINS IN DISEASES AND DISORDERS INVOLVING PHOSPHOLIPID DYSREGULATION” (priority 2017, published 2023).
Several values for one entry are separate records, joined by “and”; a condition that tells them apart may be missing. Equal entries are not always repeated. Where two headings read alike, the source gives them in different places.

Columns and labels:
leukemia = leukemia mouse models; cited from earlier work
a-syn aggregates = details: neuroglioma cells, via autophagy; cited from earlier work
HeLa/TFEB cells = details: cited from earlier work
LINCL fibroblasts = details: dose- and time-dependent; cited from earlier work
[1] = cited from earlier work
[2] = in vivo; cited from earlier work
BBB [3] = details: cited from earlier work; for Transport across BBB: 2 h, 1 mM
rats [4] = details: cited from earlier work
[5] = cited from earlier work; remark: listed apart in the source
BBB [6] = details: cited from earlier work
MCF-7 cells = experiment: Wound healing / gap closure migration assay, MCF-7; format: cell-based, human; details: 2 h treatment; for wound closure, replications r1-r3: listed as HPbCD
Method: (§1) Cells were cultured in 24-well culture plates (Cytoselect CBA-120, 0.9 mm wound healing/gap closure migration assay) for 24 h with wound healing insert in place.
(§2) Protocol: Warm up the 24-well plate (CBA-120, Cell BioLabs Inc.) with 0.9 mm CytoSelect Wound Healing Inserts at room temperature for 10 minutes. Using sterile forceps, orient the desired number of inserts in the plate wells with their “wound field” aligned in the same direction. Create a cell suspension containing 0.5-1.0×10^6 cells/ml in media containing 10% fetal bovine serum (FBS). Add 500 μL of cell suspension to each well by carefully inserting the pipette tip through the open end at the top of the insert. For optimal cell dispersion, add 250 μL of cell suspension to either side of the open ends at the top of the insert. Incubate cells in a cell culture incubator for 12-24 hours. Carefully remove the insert from the well to begin the wound healing assay. Use sterile forceps to grab and lift the insert slowly from the plate well. Slowly aspirate and discard the media from the wells. Wash wells with media to remove dead cells and debris. Finally, add media to wells to keep cells hydrated. Repeat wash if wells still have debris or unattached cells. When washing is complete, add media with FBS and/or compounds to continue cell culture and wound healing process. Agents that inhibit or stimulate cell migration can be added directly to the wells. Incubate cells in a cell culture incubator (2 hours) and then wash cells with PBS and then add fresh media without compounds. Incubate 12-24 hours before wash and fixing. Remove the fixation solution and add 400 μL of Cell Stain Solution to each well. Allow the stain to incubate with the cells for 15 minutes at room temperature. Aspirate and discard the solution. Carefully wash each stained well 3× with deionized water. Discard washes and allow cells to dry at room temperature. Cells that migrated into the wounded area or protruded from the border of the wound were visualized and photographed under an inverted microscope. Determine the surface area of the defined wound area: Total Surface Area=0.9 mm x length. Determine the surface area of the migrated cells into the wound area: Migrated Cell Surface Area=length of cell migration (mm)×2×length. Percent Closure (%)=Migrated Cell Surface Area/Total Surface Area x 100.

Aβ42 = details: SwN2a cells; persistent for 24 h after withdrawal; cited from earlier work
Tg19959 mice [7] = details: four months subcutaneous; cited from earlier work
human keratinocytes = details: cited from earlier work
cats = details: doses of 4-8 g/kg; cited from earlier work
[8] = rats, suppositories containing triglycerides (Witepsol H5); cited from earlier work
membrane cholesterol = details: SwN2a cells; cited from earlier work
[9] = system: unesterified cholesterol (UC) storage; details: 3-week-old Npc1-/- mice, dorsal neocortex, filipin; cited from earlier work
[10] = cited from earlier work; remark: listed apart in the source
[11] = mice, cats, and one human; cited from earlier work
rats [12] = details: cited from earlier work; remark: listed apart in the source
Tg19959 mice [13] = details: four months subcutaneous; cited from earlier work; remark: listed apart in the source
[14] = Table 3; cited from earlier work
MDA-MB-231 cells = experiment: Wound healing / gap closure migration assay, MDA-MB-231; format: cell-based, human; details: 2 h treatment; for wound closure, replications r1-r3: listed as HPbCD
Method: Published results have shown that β-CD inhibits human MDA-MB 231 cell migration. See Translational Medicine Communications, 1 (1), 3. This inhibition was attributed to the ability of β-CD to “deplete cholesterol”. β-CD, however, depletes also phospholipids.
as §1, §2

Caco-2 monolayers = details: cited from earlier work; for equally effective concentration on paracellular permeability: after 40 min
[15] = mice with spinobulbar muscular atrophy (SBMA); cited from earlier work
Aβ1-40/42 = details: rats, stereotactical injection into the hippocampus; cited from earlier work
NPC cells = details: cited from earlier work
erythrocytes = details: cited from earlier work
rats [16] = details: […] daily; cited from earlier work
transferrin endocytosis = details: 10 mM; cited from earlier work
Caco-2 cells = details: cited from earlier work

2-hydroxypropyl-β-cyclodextrin [HP-β-CD]
survival (leukemia): prolonged survival
a-syn aggregates (a-syn aggregates): promoted clearance
expression of LC3, SQSTM1/p62 and BECN1 (HeLa/TFEB cells): up-regulated
ceroid lipopigment (LINCL fibroblasts): clearance of ceroid lipopigment
bone mineral density (BMD) ([1]; long-term parenteral administration, 200 mg/kg): decrease bone mineral density
half-life (t1/2) [2]: 1.7 to 1.9 h
vol. of distribution (VD) [2]: 0.2 L/kg
Transport across BBB (BBB [3]): 9.3%
effect of 1 g/kg in rats (rats [4]): did not cause adverse clinical signs
tolerability ([5]; children with NPC, doses of up to 1000 mg/kg/d): well tolerated
side effects ([5]; two children with NPC, about 2500 mg/kg bi-weekly (≈700 mg/kg/d), over a year): no discernable side effects
BBB breakdown (BBB [6]): 2.5 mM
toxicity on BBB in vitro (BBB [6]): similar
average wound closure (avg) (MCF-7 cells; MCF-7, 1 mM): 73.33%
wound closure, replications r1-r3 (MCF-7 cells; MCF-7, 1 mM): 68.00% and 74.00% and 78.00%
average wound closure (avg) (MCF-7 cells; MCF-7, 2 mM): 48.33%
wound closure, replications r1-r3 (MCF-7 cells; MCF-7, 2 mM): 41.00% and 48.00% and 56.00%
average wound closure (avg) (MCF-7 cells; MCF-7, 4 mM): 33.67%
wound closure, replications r1-r3 (MCF-7 cells; MCF-7, 4 mM): 32.00% and 28.00% and 41.00%
levels of Aβ42 (Aβ42): dramatically lowered
spatial learning and memory deficits (Tg19959 mice [7]): significantly improved
apoptotic cell death (human keratinocytes; human keratinocytes): not apoptotic
ototoxicity (cats): permanent hearing loss
absorption, administered rectally [8]: 26%
level of membrane cholesterol (membrane cholesterol): reduced
UC storage in brain cells [9]: highly effective reduction
oral absorption in rats [10]: ≤3%
ototoxicity [11]: risk of causing permanent hearing loss
acute i.v. toxicity in rats (rats [12]): 10 g/kg
Aβ plaque deposition (Tg19959 mice [13]): diminished
tau immunoreactive dystrophic neurites (DN) (Tg19959 mice [13]): reduced
Solubility in water [14]: >600 mg/mL
average wound closure (avg) (MDA-MB-231 cells; MDA-MB-231, 1 mM): 67.67%
wound closure, replications r1-r3 (MDA-MB-231 cells; MDA-MB-231, 1 mM): 62.00% and 68.00% and 73.00%
average wound closure (avg) (MDA-MB-231 cells; MDA-MB-231, 2 mM): 56.00%
wound closure, replications r1-r3 (MDA-MB-231 cells; MDA-MB-231, 2 mM): 48.00% and 59.00% and 61.00%
average wound closure (avg) (MDA-MB-231 cells; MDA-MB-231, 4 mM): 39.00%
wound closure, replications r1-r3 (MDA-MB-231 cells; MDA-MB-231, 4 mM): 48.00% and 44.00% and 25.00%

CCCCCCCCCC(=O)O [C10, Capric acid]
equally effective concentration on paracellular permeability (Caco-2 monolayers): 13 mM

CCCCCCCCCCCC(=O)O [C12, lauric acid]
tight junction morphology (Caco-2 monolayers; Caco-2 monolayers): did not induce detectable changes
equally effective concentration on paracellular permeability (Caco-2 monolayers): 0.75 mM

CN1CCCC1c1cccnc1 (stereo not drawn) [nicotine]
transported through the BBB (BBB [3]; in vitro, after 2 h of incubation): 96%

C[C@@]12C[C@@]3(O)O[C@@H](O1)[C@]1(COC(=O)c4ccccc4)[C@H]3C[C@@]12O[C@@H]1O[C@H](CO)[C@@H](O)[C@H](O)[C@H]1O [paeoniflorin]
disease phenotype [15]: mitigates the disease phenotype

OC[C@H]1O[C@@H]2O[C@H]3[C@H](O)[C@@H](O)[C@@H](O[C@H]4[C@H](O)[C@@H](O)[C@@H](O[C@H]5[C@H](O)[C@@H](O)[C@@H](O[C@H]6[C@H](O)[C@@H](O)[C@@H](O[C@H]7[C@H](O)[C@@H](O)[C@@H](O[C@H]8[C@H](O)[C@@H](O)[C@@H](O[C@H]1[C@H](O)[C@H]2O)O[C@@H]8CO)O[C@@H]7CO)O[C@@H]6CO)O[C@@H]5CO)O[C@@H]4CO)O[C@@H]3CO [β-CD, beta-cyclodextrin]
Toxicity of Aβ1-40/42 (Aβ1-40/42): reduced
cholesterol accumulation (NPC cells): can reduce cholesterol accumulation
Transport across BBB (BBB [3]): 26.7%
BBB breakdown (BBB [6]): 2.5 mM
toxicity on BBB in vitro (BBB [6]): similar
cholesterol released (erythrocytes; 10 mM): 95%
extraction of cholesterol (erythrocytes; erythrocytes): most effectively
deaths, daily doses s.c. (rats [16]): no deaths
apoptotic cell death (human keratinocytes): induces caspase-dependent apoptotic cell death
reduction of transferrin endocytosis (transferrin endocytosis): 80%
acute i.v. toxicity in rats (rats [12]): 1 g/kg

OC[C@H]1O[C@@H]2O[C@H]3[C@H](O)[C@@H](O)[C@@H](O[C@H]4[C@H](O)[C@@H](O)[C@@H](O[C@H]5[C@H](O)[C@@H](O)[C@@H](O[C@H]6[C@H](O)[C@@H](O)[C@@H](O[C@H]7[C@H](O)[C@@H](O)[C@@H](O[C@H]8[C@H](O)[C@@H](O)[C@@H](O[C@H]9[C@H](O)[C@@H](O)[C@@H](O[C@H]1[C@H](O)[C@H]2O)O[C@@H]9CO)O[C@@H]8CO)O[C@@H]7CO)O[C@@H]6CO)O[C@@H]5CO)O[C@@H]4CO)O[C@@H]3CO [γ-CD, gamma-cyclodextrin]
cholesterol accumulation (NPC cells): can reduce cholesterol accumulation

alendronate-β-CD [ALN-β-CD]
effect on bone ([1]; rat, in vivo): bone-anabolic

maltosyl-α-CD
cytotoxicity (Caco-2 cells): less cytotoxic than α-CD
